Results on 72 compounds are retold here after BindingDB's records for doi:10.1016/j.ejmech.2021.113764 (China Pharmaceutical University, 2021).

The nature of the first assay: Antagonist activity at PAR4 in ICR mouse platelet-rich plasma assessed as inhibition of PAR4 AP AYPGKF-NH2-induced platelet aggregation by photo-turbidimetry assay.
For the compound `COCc1cc2ccc(OC)c(-c3nn4ccnc4s3)c2o1`, the 50% inhibitory concentration (IC50) worked out at 10 µM.
`COc1cc(F)c2nc(-c3cc(C)cc4c(=O)n(C(C)C)cnc34)sc2c1`: the concentration for half-maximal inhibition (IC50) came out at 6.74 µM.
As to `Cc1cc(-c2cccc(Cl)c2Cl)c2ncn(C)c(=O)c2c1`, the concentration for half-maximal inhibition (IC50) is 3.7 µM.
Take `COCc1cc2ccc(OC)c(-c3nn4cc(C)nc4s3)c2o1`: the IC50 was 10 µM.
`COCn1cnc2c(-c3nc4c(Cl)cc(OC)cc4s3)cc(C)cc2c1=O`: the concentration for half-maximal inhibition (IC50) came out at 1 µM.
As to `Cc1ccc(S(=O)(=O)NCCOc2cc(Cl)c3nc(-c4cc(C)cc5c(=O)n(C)cnc45)sc3c2)cc1`, the half-maximal inhibitory concentration (IC50) is 0.52 µM.
On the same count and under the same terms, with `Cc1cc(-c2ccc(F)cc2O)c2ncn(C)c(=O)c2c1` the figure was above 10 µM.
With `Cc1cc(-c2nc3c(Cl)cc(OCCNS(=O)(=O)c4ccc(F)cc4)cc3s2)c2ncn(C)c(=O)c2c1`, the half-inhibitory concentration (IC50) came to 8.22 µM.
Same read-out and setting: with `COCc1cc2cc(C)cc(-c3nn4cc(C)nc4s3)c2o1` the figure was 4.82 µM; with `COCn1cnc2c(-c3nc4c(s3)CCCC4)cc(C)cc2c1=O`, 2.32 µM.
Still for that read-out and setting: for `Cc1nn2cc(-c3cc4ccccc4o3)nc2s1` [US9862730, Example 41] the value was 1.82 µM.
As for `COCc1nc2cc(C)cc(-c3nn4cc(C)nc4s3)c2[nH]1`, the IC50 amounted to 3.13 µM.
Regarding `COCc1cnc2c(-c3nc4c(Cl)cc(OC)cc4s3)cc(C)cc2n1`, the IC50 was 0.79 µM.
In the case of `COc1cc(F)c2nc(-c3cc(C)cc4c(=O)n(C)c(C)nc34)sc2c1`, the IC50 is 5.45 µM.
Regarding `Cc1cc(-c2nccs2)c2ncn(C)c(=O)c2c1`, the IC50 worked out at 3.64 µM.
Consider `Cc1cc(-c2nc3c(s2)CCCC3)c2ncn(C)c(=O)c2c1`, for which the 50% inhibitory concentration (IC50) came to 0.11 µM.
On to `COc1cc(Cl)c2nc(-c3cc(C)cc4c3CCN(C)C4=O)sc2c1`, for which the concentration for half-maximal inhibition (IC50) came out at 1.84 µM.
With `COCc1nc2cc(C)cc(-c3nc4c(Cl)cc(OC)cc4s3)c2[nH]1`, the concentration for half-maximal inhibition (IC50) amounted to 1.63 µM.
For `Cc1ccc(-c2cc(C)cc3c(=O)n(C)cnc23)cc1`, the IC50 was above 10 µM.
As for `Cc1cc(-c2ccc3ccccc3n2)c2ncn(C)c(=O)c2c1`, the IC50 was above 10 µM.
Take `COc1cc(Cl)c2nc(-c3cc(C)cc4c(=O)n(Cc5ccccc5)cnc34)sc2c1`: the IC50 was above 10 µM.
`CCCCc1cc(-c2nc3c(Cl)cc(OC)cc3s2)c2ncn(C)c(=O)c2c1`: the half-inhibitory concentration (IC50) turned out to be 1.38 µM.
The same measure, in the same setting: with `Cc1cc(-c2nc3c(Cl)cc(OCCNC(=O)c4ccccc4)cc3s2)c2ncn(C)c(=O)c2c1` the figure was above 10 µM; with `Cc1cc(-c2nc3c(Cl)cc(OCCNS(=O)(=O)c4ccccc4)cc3s2)c2ncn(C)c(=O)c2c1`, 2.52 µM.
The same measure, in the same setting: with `CCc1cc(-c2nc3c(s2)CCCC3)c2ncn(C)c(=O)c2c1` the figure was 3.54 µM.
In the case of `Cc1cc2c(c(-c3nn4cc(C)nc4s3)c1)CCN(C)C2=O`, the half-inhibitory concentration (IC50) stood at 8.7 µM.
As to `Cc1cc(-c2cc3ccccc3o2)c2ncn(C)c(=O)c2c1`, the IC50 amounted to 4.26 µM.
Regarding `CCOCn1cnc2c(-c3nc4c(Cl)cc(OC)cc4s3)cc(C)cc2c1=O`, the half-maximal inhibitory concentration (IC50) was determined as 0.65 µM.
With `COc1cc(Cl)c2nc(-c3cccc4c(=O)n(C)cnc34)sc2c1`, the 50% inhibitory concentration (IC50) worked out at 6.78 µM.
Consider `Cc1cc(-c2ccccc2)c2ncn(C)c(=O)c2c1`, for which the IC50 was above 10 µM.
For the compound `COc1cc(Cl)c2nc(-c3cc(C)cc4c(=O)n(C)c(C(C)C)nc34)sc2c1`, the IC50 is above 10 µM.
In the case of `CCc1cc(-c2nc3c(Cl)cc(OC)cc3s2)c2ncn(C)c(=O)c2c1`, the IC50 worked out at 0.16 µM.
For `Cc1cc2c(c(-c3nn4ccnc4s3)c1)CCN(C)C2=O`, the IC50 was above 10 µM.
As for `Cc1cc(-c2ccccc2C#N)c2ncn(C)c(=O)c2c1`, the IC50 is above 10 µM.
With `Cc1cc(-c2nn3ccnc3s2)c2ccn(C)c(=O)c2c1`, the IC50 stood at 3 µM.
Consider `Cc1cc(-c2cccnc2)c2ncn(C)c(=O)c2c1`, for which the IC50 is above 10 µM.
Take `Cc1cc(-c2cccc3ccccc23)c2ncn(C)c(=O)c2c1`: the IC50 is above 10 µM.
For the compound `Cc1cc(-c2nc3c(Cl)cc(OCCNC(=O)OC(C)(C)C)cc3s2)c2ncn(C)c(=O)c2c1`, the half-inhibitory concentration (IC50) was 2.07 µM.
For the compound `Cc1cc(-c2nn3cc(C)nc3s2)c2ccn(C)c(=O)c2c1`, the half-inhibitory concentration (IC50) came to 3.21 µM.
Take `CCn1cnc2c(-c3nc4c(F)cc(OC)cc4s3)cc(C)cc2c1=O`: the IC50 stood at 9.95 µM.
Regarding `COc1ccccc1-c1cc(C)cc2c(=O)n(C)cnc12`, the IC50 is 7.32 µM.
With `Cc1cc(-c2nc3c(Cl)cc(OCCN)cc3s2)c2ncn(C)c(=O)c2c1`, the IC50 is 3.02 µM.
`Cc1cc(-c2nc3c(Cl)cc(OCCNS(=O)(=O)c4ccc(C(F)(F)F)cc4)cc3s2)c2ncn(C)c(=O)c2c1`: the IC50 stood at 0.17 µM.
As for `Cc1cc(-c2nc3c(s2)CCCC3)c2nc(C)n(C)c(=O)c2c1`, the half-inhibitory concentration (IC50) was 8.21 µM.
Consider `CCc1cc(-c2nc3c(s2)CCCC3)c2ncn(CC)c(=O)c2c1`, for which the IC50 is above 10 µM.
As to `C#CCn1cnc2c(-c3nc4c(F)cc(OC)cc4s3)cc(C)cc2c1=O`, the IC50 came to 4.2 µM.
In the case of `CCCCc1cc(-c2nc3c(s2)CCCC3)c2ncn(C)c(=O)c2c1`, the half-maximal inhibitory concentration (IC50) is 7.04 µM.
Take `COc1cc(F)c2nc(-c3cccc4c(=O)n(C)cnc34)sc2c1`: the IC50 was determined as 5.34 µM.
In the case of `CCOCn1cnc2c(-c3nc4c(s3)CCCC4)cc(C)cc2c1=O`, the IC50 is 4.77 µM.
Regarding `Cc1cn2nc(-c3cccc4ccoc34)sc2n1`, the IC50 was 7.61 µM.
As to `Cc1cc(-c2nc3c(Cl)cc4c(c3s2)OCCO4)c2ncn(C)c(=O)c2c1`, the half-maximal inhibitory concentration (IC50) was 5.57 µM.
In the case of `Cc1cc(-c2ccccc2C)c2ncn(C)c(=O)c2c1`, the concentration for half-maximal inhibition (IC50) was above 10 µM.
For `Cc1cc(-c2nc3c(Cl)cc(Cl)cc3s2)c2ncn(C)c(=O)c2c1`, the IC50 was 2.62 µM.
Consider `COc1cc(F)c2nc(-c3cc(C)cc4c(=O)n(C)cnc34)sc2c1`, for which the half-maximal inhibitory concentration (IC50) stood at 0.83 µM.
Take `Cc1cc(-c2ccccc2F)c2ncn(C)c(=O)c2c1`: the IC50 stood at 5.48 µM.
Consider `Cc1cc(-c2nc3c(s2)CCCC3)c2nc[nH]c(=O)c2c1`, for which the IC50 came to 1.38 µM.
With `CSc1nn2cc(-c3cc4ccccc4o3)nc2s1` [US9862730, Example 1], the IC50 stood at 0.94 µM.
Take `Cc1cc(-c2nc3c(s2)CCCC3)c2ncn(C(C)C)c(=O)c2c1`: the IC50 was above 10 µM.
The same measure, in the same setting: with `COc1cc(Cl)c2nc(-c3cc(C)cc4c(=O)n(C)c(C)nc34)sc2c1` the figure was 2.09 µM.
As for `Cc1cc(-c2nc3c(Cl)cc(OCCNS(=O)(=O)c4ccc(-c5ccccc5)cc4)cc3s2)c2ncn(C)c(=O)c2c1`, the half-inhibitory concentration (IC50) is above 10 µM.
For `Cc1cc(-c2nc3c(Cl)cc(OCCNS(C)(=O)=O)cc3s2)c2ncn(C)c(=O)c2c1`, the concentration for half-maximal inhibition (IC50) is above 10 µM.
Turning to `CCCCc1cc(-c2nc3c(s2)CCCC3)c2ncn(CC)c(=O)c2c1`, the IC50 came out at 6.28 µM.
With `Cn1cnc2c(-c3nc4c(s3)CCCC4)cccc2c1=O`, the IC50 was found to be 2.61 µM.
Still for that read-out and setting: with `Cc1cc(-c2nc3c(Cl)cc(OCCNS(=O)(=O)c4ccc(Cl)cc4)cc3s2)c2ncn(C)c(=O)c2c1` the figure was 1.04 µM.
Take `COCc1cc2cc(C)cc(-c3nn4ccnc4s3)c2o1`: the half-inhibitory concentration (IC50) was found to be 3.44 µM.
In the case of `COc1cc(Cl)c2nc(-c3cc(C)cc4c(=O)n(C)ccc34)sc2c1`, the IC50 worked out at 0.98 µM.
For `COc1cc(Cl)c2nc(-c3cc(C)cc4c(=O)n(C(C)C)cnc34)sc2c1`, the concentration for half-maximal inhibition (IC50) was 9.77 µM.
As for `Cc1cc(-c2nc3c(Cl)cc(OCCNS(=O)(=O)c4ccc(Cl)cc4Cl)cc3s2)c2ncn(C)c(=O)c2c1`, the 50% inhibitory concentration (IC50) was 0.95 µM.
With `Cc1cc(-c2ccc(Cl)cc2Cl)c2ncn(C)c(=O)c2c1`, the IC50 turned out to be 1.22 µM.
With `CCn1cnc2c(-c3nc4c(Cl)cc(OC)cc4s3)cc(C)cc2c1=O`, the IC50 was found to be 1.85 µM.
Turning to `CCn1cnc2c(-c3nc4c(s3)CCCC4)cc(C)cc2c1=O`, the IC50 was determined as 3.74 µM.

The nature of another assay: Antagonist activity at PAR4 in human platelet-rich plasma assessed as inhibition of PAR4 AP AYPGKF-NH2-induced platelet aggregation by photo-turbidimetry assay.
Turning to `Cc1cc(-c2nc3c(s2)CCCC3)c2ncn(C)c(=O)c2c1`, the IC50 worked out at 0.029 µM.
Regarding `CCOCn1cnc2c(-c3nc4c(Cl)cc(OC)cc4s3)cc(C)cc2c1=O`, the half-inhibitory concentration (IC50) was found to be 0.107 µM.
Consider `CCc1cc(-c2nc3c(Cl)cc(OC)cc3s2)c2ncn(C)c(=O)c2c1`, for which the 50% inhibitory concentration (IC50) is 0.04 µM.
The same measure, in the same setting: for `Cc1cc(-c2nc3c(Cl)cc(OCCNS(=O)(=O)c4ccc(C(F)(F)F)cc4)cc3s2)c2ncn(C)c(=O)c2c1` the value was 0.0066 µM.
With `COc1cc(Cl)c2nc(-c3cc(C)cc4c(=O)n(C)cnc34)sc2c1`, the half-inhibitory concentration (IC50) came out at 0.02 µM.
On to `COc1cc(F)c2nc(-c3cc(C)cc4c(=O)n(C)cnc34)sc2c1`, for which the IC50 was 0.078 µM.
With `Cc1cc(-c2ccc(Cl)cc2Cl)c2ncn(C)c(=O)c2c1`, the 50% inhibitory concentration (IC50) is 0.174 µM.

The term IC50 denotes the concentration that gives 50% inhibition.
